{"source": "patent US20140303199A1", "about": "“INHIBITORS OF RGS PROTEINS” (priority 2013, published 2014)", "key": {"RGS4(WT)": {"biological_target": "T1, RGS4(WT) (Rattus norvegicus, UniProt P49799)", "T1 sequence (P49799 51-205)": "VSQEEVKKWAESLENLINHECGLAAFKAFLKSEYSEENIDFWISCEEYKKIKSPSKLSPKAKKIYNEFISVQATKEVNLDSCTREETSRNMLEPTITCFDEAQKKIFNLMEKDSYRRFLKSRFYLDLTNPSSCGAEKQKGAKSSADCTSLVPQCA", "experiment": "Malachite green assay of RGS4-stimulated Gαi GTPase activity", "assay_type": "biochemical", "settings": "for Inhibition of RGS4 (in words): screen hits; for Inhibition of RGS4 (in words) / IC50: malachite green assay; for Mean absorbance at 642 nm, positive control wells: 10 μM final; for IC50: RGS4 200 nM final, concentration-response, read-out: IC50 against RGS4(WT)", "description": "Stock solutions of each of the 3 components of the developing solution were prepared, which were stable for long-term storage [19]. Malachite solution was prepared by first diluting concentrated sulfuric acid 1:5 in distilled water. Once the solution cooled to 25° C., malachite solution was prepared by dissolving 0.44 g of malachite green oxalate (Alfa Aesar; Ward Hill, Mass.) in 360 mL diluted acid and stored at 25° C. Molybdate solution, containing 7.5% ammonium molybdate tetrahydrate (Alfa Aesar; Ward Hill, Mass.), was prepared in distilled water and stored at 4° C. Tween-20 solution, used to maintain solubility of the phosphate-molybdate-malachite complex, was prepared as 11% (v/v) Tween-20 in distilled water. On the day of use, 2.5 mL molybdate solution and 0.2 mL Tween-20 solution were added to 10 mL of malachite solution and mixed quickly to avoid precipitation of malachite. The final ratio of the Developing Solution (DS) was 50:12.5:1 (malachite:molybdate:Tween-20). The peak absorbance was determined by a 2 nm step wavelength scan, using 50 μM NaH2PO4 at pH 8.0 as the negative control.\nThe malachite green assay involved 5 components, with a 1 min spin at 100×g between each addition. For time-course experiments, the first component was 10 μL Malachite Green Assay Buffer (MGB; 50 mM HEPES at pH 7.5, 100 mM NaCl, 5 mM EDTA, 10 mM MgCl2, 0.01% lubrol) into a clear 384-well plate (ThermoFisher Scientific; Waltham, Mass.) using a MultiDrop dispenser (PerkinElmer; Waltham, Mass.). The second component dispensed was 10 μL of a 4× stock of RGS4, typically 200 nM to 1.6 μM with the target final concentration of 50 nM to 400 nM, diluted in MGB. After a 30 min incubation, 10 μL of the third component, 4× stock of Gαi diluted in MGB, was dispensed (typically between 4 μM and 80 μM with a desired final concentration 1 μM to 20 μM). After a minimum of 5 min incubation, 10 μL of the fourth component, 4×GTP diluted in MGB, was added at 10 minute intervals from 1-110 minutes. 4×GTP concentrations varied between 0.2 mM and 2.4 mM, with a target final concentration of 50 μM to 600 μM. To terminate the reaction, 10 μL of DS was added to each well using a Microlab Star liquid handling robot (Hamilton Robotics; Reno, Nev.), to achieve a final ratio 4:1 (sample:developing solution). Following the spin, the plate was incubated for 25 min before being read at 642 nm for absorbance using an EnVision plate reader (PerkinElmer; Waltham, Mass.).\nMalachite green compound activity and Z-factor analysis conducted in 384-well plates utilized optimized parameters as discerned from the time-course experiments. 10 μL of 4× compound or MGB was dispensed into appropriate wells. For single point assay, 160 μM compound was used, and for dose-response assays a series of ½ log dilutions from 100 μM final to 316 μM final was used. 10 μL of the optimized 4×RGS4 concentration, 0.8 μM in MGB, was dispensed into all wells. After a spin down at 100×g for 1 min, the assay plate was incubated at 25° C. for 30 min. 10 μL of the optimized Gαi concentration, 20 μM in MGB, was dispensed to each well and incubated at 25° C. for 5 min. 10 μL of the optimized 4×GTP, 600 μM in MGB, was then added to the samples. After spinning the samples down at 100×g for 1 min, the samples were incubated at 25° C. for 75 min. The samples were then stamped with 10 μL of DS and incubated for 25 min before reading absorbance at 642 nm.\n1536-well Z-factor analysis and compound library screen were accomplished largely as described for 384-well plates. Initial screen and Z-factor determination was performed in a final concentration of 5.5% dimethylsulfoxide. For 1536-well assays NUNC clear plates were used (ThermoFisher Scientific; Waltham, Mass.). Each component was dispensed as 1.8 μL samples into each well using a FlexDrop (PerkinElmer; Waltham, Mass.)."}, "RGS4(Δ7) mutant": {"biological_target": "T2, RGS4(Δ7) mutant (Rattus norvegicus, UniProt P49799, C132A/C148A/C183A/C197A/C204A/C71A/C95A)", "T2 construct": "fused to the N-terminus of an RGS4 construct containing amino acids 51-205; 10x His tag (N, cleaved yes); TEV protease recognition site (N, cleaved yes); made in house; host or cells: E. coli BL21-DE3 (vector pMALC2H10T)", "T2 sequence (P49799 51-205 C71A/C95A/C132A/C148A/C183A/C197A/C204A limits assumed)": "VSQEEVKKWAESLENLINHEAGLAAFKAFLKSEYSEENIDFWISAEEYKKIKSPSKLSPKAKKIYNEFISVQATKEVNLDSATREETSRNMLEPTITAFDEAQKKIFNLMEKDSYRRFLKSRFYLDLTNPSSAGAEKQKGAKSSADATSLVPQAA", "experiment": "Malachite green assay counter screen against cysteine-null RGS4(Δ7) mutant", "assay_type": "biochemical", "settings": "for Inhibition of RGS4(Δ7) mutant (in words): screen hits; for IC50: concentration-response", "source_text": "Rat RGS4, sharing 97% sequence identity with human RGS4, and the cysteine to alanine mutant were expressed as fusion proteins of maltose binding protein (MBP), a 10× His tag, and a TEV protease recognition site fused to the N-terminus of an RGS4 construct containing amino acids 51-205, in the vector pMALC2H10T in BL21-DE3 bacteria (Stratagene; Santa Clara, Calif.). The single cysteine-null Δ51-RGS4 construct was generated by site-directed mutagenesis as described previously Expression and purification were performed as described previously. Purified protein was incubated with TEV protease at a molar ratio of 10:1 (fusion protein:TEV protease) overnight at 4° C. The cleaved Δ51-RGS4 was then isolated by purification over an ANX column (GE Healthcare; Fairfield, Conn.) in 50 mM HEPES at pH6.8 and 50 mM NaCl. The flow through, containing the ˜99% Δ51-RGS4 as determined by SDS-PAGE gel, was then collected and concentrated using a YM-10 centrifugal concentrator (Millipore; Billerica, Mass.). The concentration of Δ51-RGS4 was calculated based on the absorbance at 280 nm utilizing a Take-3 plate (Biotek; Winnoski, Vt.) in a Synergy 2 plate reader (Biotek; Winnoski, Vt.).\nStock solutions of each of the 3 components of the developing solution were prepared, which were stable for long-term storage. Malachite solution was prepared by first diluting concentrated sulfuric acid 1:5 in distilled water. Once the solution cooled to 25° C., malachite solution was prepared by dissolving 0.44 g of malachite green oxalate (Alfa Aesar; Ward Hill, Mass.) in 360 mL diluted acid and stored at 25° C. Molybdate solution, containing 7.5% ammonium molybdate tetrahydrate (Alfa Aesar; Ward Hill, Mass.), was prepared in distilled water and stored at 4° C. Tween-20 solution, used to maintain solubility of the phosphate-molybdate-malachite complex, was prepared as 11% (v/v) Tween-20 in distilled water. On the day of use, 2.5 mL molybdate solution and 0.2 mL Tween-20 solution were added to 10 mL of malachite solution and mixed quickly to avoid precipitation of malachite. The final ratio of the Developing Solution (DS) was 50:12.5:1 (malachite:molybdate:Tween-20). The peak absorbance was determined by a 2 nm step wavelength scan, using 50 μM NaH2PO4 at pH 8.0 as the negative control.\nMalachite green compound activity and Z-factor analysis conducted in 384-well plates utilized optimized parameters as discerned from the time-course experiments. 10 μL of 4× compound or MGB was dispensed into appropriate wells. For single point assay, 160 μM compound was used, and for dose-response assays a series of ½ log dilutions from 100 μM final to […] final was used. 10 μL of the optimized 4×RGS4 concentration, 0.8 μM in MGB, was dispensed into all wells. After a spin down at 100×g for 1 min, the assay plate was incubated at 25° C. for 30 min. 10 μL of the optimized Gαi concentration, 20 μM in MGB, was dispensed to each well and incubated at 25° C. for 5 min. 10 μL of the optimized 4×GTP, 600 μM in MGB, was then added to the samples. […] The samples were then stamped with 10 μL of DS and incubated for 25 min before reading absorbance at 642 nm.\nInitial hits were confirmed by single point malachite green assay at 40 μM compound. […] This control would detect compounds that either interrupt the detected complex or reduce the molybdate resulting in peak shift outside of the desired wavelength. […] Compounds that increased the predicted absorbance were carried through, as they would indicate false negatives in the assay. […]"}}, "note": "Where a name gives a salt, the structure may show the parent alone.", "data": [{"smiles": "CC(=O)Oc1c2c(c(CC=C(C)C)c3c1C(=O)C1=C[C@@H]4C[C@H]5C(C)(C)OC(C/C=C(\\C)C(=O)O)(C4=O)[C@@]15O3)O[C@](C)(CCC=C(C)C)C=C2", "note": "[UI-2034, acetyl-isogambogic acid]", "values": [{"measurement": "Inhibition of RGS4 (in words)", "setting": "RGS4(WT)", "result": "inhibitors"}, {"measurement": "Inhibition of RGS4(Δ7) mutant (in words)", "setting": "RGS4(Δ7) mutant", "result": "inhibitors"}]}, {"smiles": "Cc1ccc(-n2sc(=O)n(Cc3ccc(F)cc3)c2=O)cc1", "note": "[CCG-50014, reference compound]", "values": [{"measurement": "Mean absorbance at 642 nm, positive control wells", "setting": "RGS4(WT); 384-well plate, 192 wells, negative control mean 1.74", "result": 0.92}, {"measurement": "Mean absorbance at 642 nm, positive control wells", "setting": "RGS4(WT); 1536-well plate, 5.5% DMSO, 128 wells, negative control mean 0.67", "result": 0.30}]}, {"smiles": "CC1=C(O)C(=O)C=C2C1=CC=C1[C@@]2(C)CC[C@@]2(C)[C@@H]3C[C@](C)(C(=O)O)CC[C@]3(C)CC[C@]12C", "note": "[UI-1590, celastrol]", "values": [{"measurement": "IC50", "setting": "RGS4(WT)", "result": 0.724, "unit": "µM"}, {"measurement": "IC50", "setting": "RGS4(Δ7) mutant", "result": 88, "unit": "µM"}]}, {"smiles": "CC(C)=CCC[C@]1(C)C=Cc2c(O)c3c(c(CC=C(C)C)c2O1)O[C@]12C(=C[C@@H]4C[C@H]1C(C)(C)O[C@@]2(C/C=C(/C)C(=O)O)C4=O)C3=O", "note": "[UI-1907, gambogic acid]", "values": [{"measurement": "IC50", "setting": "RGS4(WT)", "result": 16, "unit": "µM"}, {"measurement": "Inhibition of RGS4 (in words)", "setting": "RGS4(WT)", "result": "inhibitors"}, {"measurement": "IC50", "setting": "RGS4(Δ7) mutant", "result": 51, "unit": "µM"}, {"measurement": "Inhibition of RGS4(Δ7) mutant (in words)", "setting": "RGS4(Δ7) mutant", "result": "inhibitors"}]}, {"smiles": "C[n+]1cc2c3c(ccc2c2ccc4cc5c(cc4c21)OCO5)OCO3", "note": "[UI-5, sanguinarium sulfate]", "values": [{"measurement": "IC50", "setting": "RGS4(WT)", "result": 126, "unit": "µM"}, {"measurement": "IC50", "setting": "RGS4(Δ7) mutant", "result": 454, "unit": "µM"}]}]}
